Measured values as given in US8748426B2, “Inhibitors of diacylglycerol acyl transferase” (Piramal Enterprises Limited, priority 2009, dated 2014).

Target: T1, hDGAT1 (Homo sapiens, UniProt O75907)
T1 sequence (O75907 1-488): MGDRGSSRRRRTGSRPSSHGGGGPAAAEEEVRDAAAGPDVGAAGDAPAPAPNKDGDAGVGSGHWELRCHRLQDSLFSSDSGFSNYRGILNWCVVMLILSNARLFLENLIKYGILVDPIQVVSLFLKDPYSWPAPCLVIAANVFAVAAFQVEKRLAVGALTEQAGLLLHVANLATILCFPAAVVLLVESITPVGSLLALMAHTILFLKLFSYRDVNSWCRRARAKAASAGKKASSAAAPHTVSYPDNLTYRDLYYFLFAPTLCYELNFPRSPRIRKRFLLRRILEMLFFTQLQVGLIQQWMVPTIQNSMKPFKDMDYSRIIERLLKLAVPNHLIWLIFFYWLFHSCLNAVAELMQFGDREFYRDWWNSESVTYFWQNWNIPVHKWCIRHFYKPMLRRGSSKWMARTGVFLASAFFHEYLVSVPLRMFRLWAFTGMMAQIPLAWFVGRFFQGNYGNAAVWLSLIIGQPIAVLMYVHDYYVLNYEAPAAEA
Assay: In-vitro DGAT1 assay (14C oleoyl CoA, hDGAT1 microsomes from Sf9 cells)
Conditions: at 1 μM

SMILES | % Inhibition of hDGAT1
O=C(Nc1ccc(-c2ccc3c(c2)C(=O)N(C2(C(=O)O)CCC2)C3)cc1)c1ccc(-c2ccccc2)cc1 [Example 576, 1-(6-(4-([1,1′-Biphenyl]-4-ylcarboxamido)phenyl)-1-oxoisoindolin-2-yl)cyclo butanecarboxylic acid] | ++ (>50% Inhibition)
O=C(Nc1ccc(-c2ccc3c(c2)C(=O)N(C24C[C@@H]5C[C@@H](CC(C(=O)O)(C5)C2)C4)C3)cc1)c1ccc(C(F)(F)F)cc1 [Example 571, (1r,3s,5R,7S)-3-(1-Oxo-6-(4-(4-(trifluoromethyl)benzamido)phenyl)isoindolin-2-yl)adamantane-1-carboxylic acid] | ++ (>50% Inhibition)
O=C(Nc1ccc(-c2ccc3c(c2)C(=O)N(C24C[C@@H]5C[C@@H](CC(C(=O)O)(C5)C2)C4)C3)cc1)c1cccc(Cl)c1 [Example 567, (1r,3s,5R,7S)-3-(6-(4-(3-Chlorobenzamido)phenyl)-1-oxoisoindolin-2-yl)adamantane-1-carboxylic acid] | + (10-50% Inhibition)

Same assay, conditions: read-out: % Inhibition of hDGAT1

SMILES | inhibition at 1 µM [%]
Cc1ccc(NC(=O)Nc2ccc(-c3ccc4c(c3)CN([C@H](C(=O)O)C(C)C)C4=O)cc2)cc1 [Example 241, (S)-3-Methyl-2-(1-oxo-5-(4-(3-p-tolylureido)phenyl)isoindolin-2-yl)butanoic acid] | > 50
CC(C)[C@@H](C(=O)O)N1Cc2ccc(-c3ccc(NC(=O)c4ccccc4Oc4ccccc4)cc3)cc2C1=O [Example 152, (S)-3-Methyl-2-(1-oxo-6-(4-(2-phenoxybenzamido)phenyl)isoindolin-2-yl)butanoic acid] | > 50
CC(C)[C@@H](C(=O)O)N1Cc2cc(-c3ccc(NC(=O)Nc4cccc(C#N)c4)cc3)ccc2C1=O [Example 255, (S)-2-(5-(4-(3-(3-Cyanophenyl)ureido)phenyl)-1-oxoisoindolin-2-yl)-3-methylbutanoic acid] | > 50
CC(C)[C@@H](C(=O)O)N1Cc2ccc(-c3ccc(NC(=S)Nc4cccc(C(F)(F)F)c4)cc3)cc2C1=O [Example 76, (S)-3-Methyl-2-(1-oxo-6-(4-(3-(3-(trifluoromethyl)phenyl)thioureido)phenyl)isoindolin-2-yl)butanoic acid] | > 50
CC(C)[C@@H](C(=O)O)N1Cc2ccc(-c3ccc(NC(=O)c4ccc(C5CCCCC5)cc4)cc3)cc2C1=O [Example 174, (S)-2-(6-(4-(4-Cyclohexylbenzamido)phenyl)-1-oxoisoindolin-2-yl)-3-methyl butanoic acid] | > 50
COc1ccc(NC(=S)Nc2ccc(-c3ccc4c(c3)CN([C@H](C(=O)O)C(C)C)C4=O)cc2)cc1 [Example 261, (S)-2-(5-(4-(3-(4-Methoxyphenyl)thioureido)phenyl)-1-oxoisoindolin-2-yl)-3-methylbutanoic acid] | 10 to 50
CC(C)[C@@H](C(=O)O)N1Cc2ccc(-c3ccc(NC(=O)Nc4ccc(F)cc4)cc3)cc2C1=O [Example 8, (S)-2-(6-(4-(3-(4-Fluorophenyl)ureido)phenyl)-1-oxoisoindolin-2-yl)-3-methyl butanoic acid] | 10 to 50
CC(C)[C@@H](C(=O)O)N1Cc2ccc(-c3ccc(NC(=O)c4ccc(C(F)(F)F)cc4)cc3)cc2C1=O [Example 102, (S)-3-Methyl-2-(1-oxo-6-(4-(4-(trifluoromethyl)benzamido)phenyl)isoindolin-2-yl)butanoic acid] | > 50
COc1ccc(C(=O)Nc2ccc(-c3ccc4c(c3)C(=O)N([C@H](C(=O)O)C(C)C)C4)cc2)c(OC)c1 [Example 156, (S)-2-(6-(4-(2,4-Dimethoxybenzamido)phenyl)-1-oxoisoindolin-2-yl)-3-methyl butanoic acid] | > 50
CCCCCc1ccc(C(=O)Nc2ccc(-c3ccc4c(c3)C(=O)N(C(C)(C)C(=O)O)C4)cc2)cc1 [Example 525, 2-Methyl-2-(1-oxo-6-(4-(4-pentylbenzamido)phenyl)isoindolin-2-yl)propanoic acid] | 10 to 50
CC(C)[C@@H](C(=O)O)N1Cc2ccc(-c3ccc(NC(=O)c4ccc(N5CCOCC5)nc4)cc3)cc2C1=O [Example 213, (S)-3-Methyl-2-(6-(4-(6-morpholinonicotinamido)phenyl)-1-oxoisoindolin-2-yl)butanoic acid] | 10 to 50
Cc1cc(C)c(C(=O)Nc2ccc(-c3ccc4c(c3)C(=O)N([C@H](C(=O)O)C(C)C)C4)cc2)c(C)c1 [Example 154, (S)-3-Methyl-2-(1-oxo-6-(4-(2,4,6-trimethylbenzamido)phenyl)isoindolin-2-yl)butanoic acid] | 10 to 50
CCCCOc1ccc(C(=O)Nc2ccc(-c3ccc4c(c3)C(=O)N([C@H](C(=O)O)C(C)C)C4)c(Cl)c2)cc1 [Example 484, (S)-2-(6-(4-(4-Butoxybenzamido)-2-chlorophenyl)-1-oxoisoindolin-2-yl)-3-methylbutanoic acid] | > 50
Cc1ccccc1NC(=S)Nc1ccc(-c2ccc3c(c2)C(=O)N([C@H](C(=O)O)C(C)C)C3)cc1 [Example 72, (S)-3-Methyl-2-(1-oxo-6-(4-(3-o-tolylthioureido)phenyl)isoindolin-2-yl)butanoic acid] | > 50
O=C(O)CCCN1Cc2ccc(-c3ccc(NC(=O)Nc4cccc(C(F)(F)F)c4)cc3)cc2C1=O [Example 349, 4-(1-Oxo-6-(4-(3-(3-(trifluoromethyl)phenyl)ureido)phenyl)isoindolin-2-yl)butanoic acid] | 10 to 50
CC(C)[C@@H](C(=O)O)N1Cc2ccc(-c3ccc(NC(=O)NC4CCCCC4)cc3)cc2C1=O [Example 34, (S)-2-(6-(4-(3-Cyclohexylureido)phenyl)-1-oxoisoindolin-2-yl)-3-methylbutanoic acid] | > 50
Cc1ccc(NC(=O)Nc2ccc(-c3ccc4c(c3)C(=O)N([C@H](C(=O)O)C(C)C)C4)cc2F)cc1C [Example 436, (S)-2-(6-(4-(3-(3,4-Dimethylphenyl)ureido)-3-fluorophenyl)-1-oxoisoindolin-2-yl)-3-methylbutanoic acid] | > 50
COc1ccc(C(=O)Nc2ccc(-c3ccc4c(c3)C(=O)N([C@H](C(=O)O)C(C)C)C4)cc2)cc1OC [Example 142, (S)-2-(6-(4-(3,4-Dimethoxybenzamido)phenyl)-1-oxoisoindolin-2-yl)-3-methyl butanoic acid] | 10 to 50
CC(C)[C@@H](C(=O)O)N1Cc2ccc(-c3ccc(NC(=O)Nc4ccc5c(c4)CCC5)c(F)c3)cc2C1=O [Example 438, (S)-2-(6-(4-(3-(2,3-Dihydro-1H-inden-5-yl)ureido)-3-fluorophenyl)-1-oxoisoindolin-2-yl)-3-methylbutanoic acid] | > 50
CC(C)[C@@H](C(=O)O)N1Cc2cc(-c3ccc(NS(=O)(=O)Cc4ccccc4)cc3)ccc2C1=O [Example 301, (S)-3-Methyl-2-(1-oxo-5-(4-(phenylmethylsulfonamido)phenyl)isoindolin-2-yl)butanoic acid] | 10 to 50
CC(C)[C@@H](C(=O)O)N1Cc2ccc(-c3ccc(NC(=O)c4ccc(C(C)(C)C)cc4)cc3F)cc2C1=O [Example 604, (S)-2-(6-(4-(4-(tert-Butyl)benzamido)-2-fluorophenyl)-1-oxoisoindolin-2-yl)-3-methylbutanoic acid] | > 50
CCCCCCCCc1ccc(C(=O)Nc2ccc(-c3ccc4c(c3)C(=O)N([C@H](C(=O)O)C(C)C)C4)cc2)cc1 [Example 172, (S)-3-Methyl-2-(6-(4-(4-octylbenzamido)phenyl)-1-oxoisoindolin-2-yl)butanoic acid] | > 50
CCCCCCCCCc1ccc(C(=O)Nc2ccc(-c3ccc4c(c3)C(=O)N([C@H](C(=O)O)C(C)C)C4)cc2)cc1 [Example 186, (S)-3-Methyl-2-(6-(4-(4-nonylbenzamido)phenyl)-1-oxoisoindolin-2-yl)butanoic acid] | > 50
COc1ccccc1NC(=S)Nc1ccc(-c2ccc3c(c2)C(=O)N([C@H](C(=O)O)C(C)C)C3)cc1 [Example 74, (S)-2-(6-(4-(3-(2-Methoxyphenyl)thioureido)phenyl)-1-oxoisoindolin-2-yl)-3-methylbutanoic acid] | 10 to 50
CC(C)[C@@H](C(=O)O)N1Cc2ccc(-c3ccc(NC(=O)c4ccc(-c5cnco5)cc4)cc3)cc2C1=O [Example 622, (S)-3-Methyl-2-(6-(4-(4-(oxazol-5-yl)benzamido)phenyl)-1-oxoisoindolin-2-yl)butanoic acid] | > 50
CCCCOc1ccc(C(=O)Nc2cnc(-c3ccc4c(c3)C(=O)N([C@H](C(=O)O)C(C)C)C4)cn2)cc1 [Example 509, (S)-2-(6-(5-(4-Butoxybenzamido)pyrazin-2-yl)-1-oxoisoindolin-2-yl)-3-methylbutanoic acid] | > 50
O=C(Nc1ccc(-c2ccc3c(c2)CN(C2(C(=O)O)CCCC2)C3=O)cc1)Nc1cccc(C(F)(F)F)c1 [Example 370, 1-(1-Oxo-5-(4-(3-(3-(trifluoromethyl)phenyl)ureido)phenyl)isoindolin-2-yl)cyclopentanecarboxylic acid] | 10 to 50
CC(C)[C@@H](C(=O)O)N1Cc2ccc(-c3ccc(NC(=O)c4ccc(C(C)(C)C)cc4)nn3)cc2C1=O [Example 498, (S)-2-(6-(6-(4-tert-Butylbenzamido)pyridazin-3-yl)-1-oxoisoindolin-2-yl)-3-methylbutanoic acid] | > 50
